Experimental data taken from patent publication US9580432B2, “Fused pyrimidine compound or salt thereof” (TAIHO PHARMACEUTICAL CO., LTD., priority 2013, dated 2017).

Tests used:
[1] = test system: purified recombinant human EGFR protein / BTK; test: BTK inhibition selectivity compared with EGFR kinase inhibitory activity (in vitro); assay type: biochemical; conditions: EGFR assay ATP 1.5 μM
Procedure: 1) Measurement of BTK Inhibitory Activity
2) Measurement of EGFR Inhibitory Activity
Therefore, a biotinated peptide (biotin-[…]) was produced by referring to the amino acid sequence of the peptide. The purified recombinant human EGFR protein used in the test was purchased from Carna Biosciences, Inc.
With regard to the measurement of the inhibitory activity of the compounds, firstly, the compounds of the present invention were diluted stepwise with dimethyl sulfoxide (DMSO). […] The reaction was terminated by adding EDTA thereto in order to obtain a final concentration of 24 mM. Subsequently, a detection liquid containing Eu-labeled anti-phosphorylated tyrosine antibody PT66 (PerkinElmer, Inc.) and […] APC-SA (PerkinElmer, Inc.) was added thereto, and the system was left to stand for 2 hours or longer at room temperature.
3) BTK Inhibition Selectivity

[2] = test system: A431 cells / TMD8 cells; test: Proliferation inhibitory activity against cell lines expressing BTK and EGFR (in vitro), comparison of selectivity; assay type: cell-based, human; conditions: ratio from GI50 (nM), 3 days culture, CELLTITER GLO
Procedure, shortened: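 BTK-expressing TMD8 DLBCL cells (RPMI1640/10% FBS) and EGFR-overexpressing A431 epidermoid carcinoma cells (DMEM/10% FBS) cultured 1 day, then exposed to compound (0.2% DMSO final) for 3 days at 37° C. Luminescence read-out; inhibition ratio % = (C−T)/(C−C0)×100, with A431/TMD8 ratio as selectivity index.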

[3] = molecular target: purified recombinant human BTK protein (Homo sapiens (Human), UniProt Q06187); test: Measurement of BTK inhibitory activity (in vitro); assay type: biochemical; conditions: FL-PEPTIDE 2 substrate 1 μM, ATP 45 μM, 40 minutes at 25° C.
Chain of purified recombinant human BTK protein (Q06187 whole entry): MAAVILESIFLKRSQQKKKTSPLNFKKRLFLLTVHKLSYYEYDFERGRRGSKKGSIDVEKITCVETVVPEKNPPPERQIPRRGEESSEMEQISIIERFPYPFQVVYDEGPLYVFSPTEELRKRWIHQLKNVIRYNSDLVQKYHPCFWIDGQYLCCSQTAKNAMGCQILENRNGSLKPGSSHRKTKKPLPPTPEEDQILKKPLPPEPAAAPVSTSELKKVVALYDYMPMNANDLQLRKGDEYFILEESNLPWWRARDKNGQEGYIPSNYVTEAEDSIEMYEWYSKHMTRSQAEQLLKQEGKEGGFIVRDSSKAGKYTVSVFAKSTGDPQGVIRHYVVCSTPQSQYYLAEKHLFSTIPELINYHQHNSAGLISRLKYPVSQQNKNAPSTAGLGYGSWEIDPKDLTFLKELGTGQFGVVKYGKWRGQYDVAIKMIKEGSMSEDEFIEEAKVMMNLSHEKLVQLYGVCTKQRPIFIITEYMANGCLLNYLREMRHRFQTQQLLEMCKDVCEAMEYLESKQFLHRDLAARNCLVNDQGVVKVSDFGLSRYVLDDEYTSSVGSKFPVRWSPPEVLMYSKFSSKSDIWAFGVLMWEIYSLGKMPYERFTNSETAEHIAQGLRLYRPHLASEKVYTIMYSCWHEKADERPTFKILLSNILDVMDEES
Procedure, shortened: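 Recombinant human BTK with FL-PEPTIDE 2 substrate (1 μM), 45 μM ATP and 10 mM MgCl2 in 20 mM HEPES pH 7.5, 2 mM DTT, 0.01% Triton X-100, 5% DMSO; 40 min at 25° C. Reaction stopped with 30 mM EDTA. Phosphorylated and unphosphorylated peptide separated and detected by microchannel capillary electrophoresis.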

Structure (SMILES) | EGFR inhibitory activity IC50 value (nM)/BTK inhibitory activity IC50 value (nM) [1] | IC50 [3] [nM] | A431 cell proliferation inhibition ratio/TMD8 cell proliferation inhibitio ratio [2]
Nc1ncnc2c1c(C(=O)Nc1nc3cc(Cl)ccc3o1)nn2[C@@H]1CCCN(C(=O)/C=C/CN2CCCCC2)C1 [Example 20, (R,E)-4-amino-N-(5-chlorobenzo[d]oxazol-2-yl)-1-(1-(4-(piperidin-1-yl)but-2-enoyl)piperidin-3-yl)-1H-pyrazolo[3,4-d]pyrimidine-3-carboxamide] | 138.2 | 0.801 | >19120.5
C/C=C/C(=O)N1CC[C@@H](n2nc(C(=O)Nc3nc4cc(Cl)ccc4o3)c3c(N)ncnc32)C1 [Example 25, (R,E)-4-amino-N-(5-chlorobenzo[d]oxazol-2-yl)-1-(1-(but-2-enoyl)pyrrolidin-3-yl)-1H-pyrazolo[3,4-d]pyrimidine-3-carboxamide] | 173.7 | 1.17 | 2793.0
CC(C)N(C)C/C=C/C(=O)N1CC[C@@H](n2nc(C(=O)Nc3nc4cc(Cl)ccc4o3)c3c(N)ncnc32)C1 [Example 35, (R,E)-4-amino-N-(5-chlorobenzo[d]oxazol-2-yl)-1-(1-(4-(isopropyl(methyl)amino)but-2-enoyl)pyrrolidin-3-yl)-1H-pyrazolo[3,4-d]pyrimidine-3-carboxamide] | 35.1 | 0.792 | >18691.6

Continued by falling IC50 [3], values first:

EGFR inhibitory activity IC50 value (nM)/BTK inhibitory activity IC50 value (nM) [1] | IC50 [3] [nM] | Structure (SMILES) | A431 cell proliferation inhibition ratio/TMD8 cell proliferation inhibitio ratio [2]
79.3 | 0.79 | CCN(CC)C/C=C/C(=O)N1CC[C@@H](n2nc(C(=O)Nc3nc4cc(Cl)ccc4o3)c3c(N)ncnc32)C1 [Example 34, (R,E)-4-amino-N-(5-chlorobenzo[d]oxazol-2-yl)-1-(1-(4-(diethylamino)but-2-enoyl)pyrrolidin-3-yl)-1H-pyrazolo[3,4-d]pyrimidine-3-carboxamide] | >22471.9
121.3 | 0.788 | CC(C)N(C)C/C=C/C(=O)N1CCC[C@@H](n2nc(C(=O)Nc3nc4cc(Cl)ccc4o3)c3c(N)ncnc32)C1 [Example 18, (R,E)-4-amino-N-(5-chlorobenzo[d]oxazol-2-yl)-1-(1-(4-(isopropyl(methyl)amino)but-2-enoyl)piperidin-3-yl)-1H-pyrazolo[3,4-d]pyrimidine-3-carboxamide] | >15625.0
144.8 | 0.69 | Nc1ncnc2c1c(C(=O)Nc1nc3cc(Cl)ccc3o1)nn2[C@@H]1CCCN(C(=O)/C=C/CN2CCCC2)C1 [Example 19, (R,E)-4-amino-N-(5-chlorobenzo[d]oxazol-2-yl)-1-(1-(4-(pyrrolidin-1-yl)but-2-enoyl)piperidin-3-yl)-1H-pyrazolo[3,4-d]pyrimidine-3-carboxamide] | >17825.3
43.1 | 0.634 | CN(C)C/C=C/C(=O)N1CC[C@@H](n2nc(C(=O)Nc3nc4cc(Cl)ccc4o3)c3c(N)ncnc32)C1 [Example 32, (R,E)-4-amino-N-(5-chlorobenzo[d]oxazol-2-yl)-1-(1-(4-(dimethylamino)but-2-enoyl)pyrrolidin-3-yl)-1H-pyrazolo[3,4-d]pyrimidine-3-carboxamide] | >11123.5
21.3 | 0.566 | C=CC(=O)N1CC[C@@H](n2nc(C(=O)Nc3nc4cc(F)ccc4o3)c3c(N)ncnc32)C1 [Example 30, (R)-1-(1-acryloylpyrrolidin-3-yl)-4-amino-N-(5-fluorobenzo[d]oxazol-2-yl)-1H-pyrazolo[3,4-d]pyrimidine-3-carboxamide] | 5164.3
